Patent US20090275496A1, “Effective quantitation of complex peptide mixtures in tissue samples and improved therapeutic methods” (Peptimmune, Inc., priority 2004, published 2009)

Columns and labels:
[1] = molecular target: HLA-DR4 (DRB1*0401) (Homo sapiens, UniProt P01903+P01911, A100K/A169T/F76Y/I96L/K127E/L162R/M171V/N62H/P40V/Q125Y/R42H/S133A/S149N/S66Y/V115G/V209L/W38E); settings: RA-associated, peptide-specific manner; cited from earlier work
[2] = molecular target: HLA-DR2 (DRB1*1501) (Homo sapiens, UniProt P01903+P01911); settings: MS-associated, peptide-specific manner; cited from earlier work
[3] = system: anti-PI-2301 biotinylated antibody (bAb); experiment: Direct competition ELISA, specificity of the anti-PI-2301 biotinylated antibody; format: binding, rabbit
Experimental: A direct competition ELISA was carried out for the detection and quantitation of PI-2301, an RSP composition. […] Unbound material was washed away and diluted streptavidin-horseradish peroxidase (HRP) conjugate was added to the wells. After washing away any unbound streptavidin conjugate, substrate for HRP catalyzed […] was added to the wells and incubated, yielding a blue color that turns yellow when stop solution is added. The optical density of the color was measured at 450 nm using a microtiter plate reader (for example, Bio-Tek ELx405) and a standard curve was generated.
Specificity is the ability of a method to measure the material of interest to the exclusion of other similar compounds. In this method, specificity is a function of the anti-PI-2301 biotinylated antibody (bAb). If the bAb recognizes, and binds preferentially to, the compound in the serum the bAb will be washed away and the final A450 value will be low. […] Table 5 summarizes the A450 specificity data for 3 compounds spiked into mouse serum.

[4] = molecular target: HLA-DR1 (DRB1*0101) (Homo sapiens, UniProt P01903+P01911, A100R/D57E/F55L/F60I/F76Y/I96L/L162R/M171V/P40L/Q125E/R42F/V115G/Y59C); settings: RA-associated, peptide-specific manner; cited from earlier work
[5] = system: myeloid cells isolated from femurs of immunologically naive mice; experiment: In vitro effects on macrophages: cytokines and chemokines in supernatants; format: cell-based; settings: culture supernatant
Text: Isolated cells were labeled with magnetic beads and T- and B-cells were depleted from the sample. […] TNFα, IL-6, CXCL1 and CXCL2 as inflammatory markers, and IL-12p70, CXCL13, and CCL22 as regulatory markers.

[6] = system: MS; settings: Bornstein 1987; Johnson 1995; cited from earlier work
[7] = Serum concentration and bioavailability after administration to mice (ELISA); format: in vivo, CD-1 mice
Experimental: The blood sample was allowed to clot at room temperature for 15-30 minutes and then the tube was centrifuged at 4° C., 10,000 RPM, for 10 minutes in order to isolate serum. Serum was collected, aliquoted, and stored −80° C. for future testing.
After washing away any unbound conjugate, substrate was added to the wells and incubated, yielding a blue color that turned yellow when stop solution was added. The optical density was measured at 450 nm and a standard curve was generated.

glatiramer acetate [Cop-1]
binding to purified HLA-DR4 (DRB1*0401) [1]: high affinity
binding to purified HLA-DR2 (DRB1*1501) [2]: high affinity
detection by the antibody for PI-2301 [3]: detects Cop-1 efficiently
binding to purified HLA-DR1 (DRB1*0101) [4]: high affinity
expression of CXCL1 [5]: no significant effect
expression of CXCL2 [5]: no significant effect
expression of IL-6 [5]: no significant effect
expression of TNFα [5]: no significant effect
effect on MS in patients [6]: ameliorate MS but does not suppress the disease entirely
time of peak serum concentration ([7]; after subcutaneous administration to mice): about 15 minutes
administered amount available in the plasma (bioavailability) ([7]; mice, single subcutaneous or intravenous administration): About 8.5%
